From ChEMBL document CHEMBL5506012, “Targeting Myeloid Leukemia-1 in Cancer Therapy: Advances and Directions” (J Med Chem, 2024)

Tests used:
[1] = molecular target: T1, Induced myeloid leukemia cell differentiation protein Mcl-1 (Homo sapiens, UniProt Q07820); experiment: Inhibition of human recombinant Mcl-1 by Surface Plasmon Resonance assay
[2] = molecular target: T1, Induced myeloid leukemia cell differentiation protein Mcl-1; experiment: Binding affinity to N-terminal His-tagged human recombinant Mcl-1 (172 to 327 residues) expressed in Escherichia coli BL21 (DE3) assessed as inhibition constant
[3] = test system: NCI-H929; experiment: Antiproliferative activity against human NCI-H929 cells assessed as reduction in cell viability; assay type: functional, cell-based
[4] = test system: MV4-11; experiment: animal or person; settings: Mus musculus, MV4-11, po, 120 h, read-out: TGI
Description: Antitumor activity against human MV4-11 cells xenografted in C57BL/6 mouse assessed as tumor growth inhibition at 12.5 mg/kg, po administered once daily for 5 days relative to control

[5] = test system: OCI-AML-5; experiment: Antiproliferative activity against human OCI-AML5 cells assessed as reduction in cell viability incubated for 48 hrs by MTT assay; settings: OCI-AML-5, 48 h
[6] = molecular target: T2, Apoptosis regulator Bcl-2 (Homo sapiens, UniProt P10415); experiment: Binding affinity to human Bcl-2 assessed as inhibition constant SPR assay
T2 sequence (P10415 whole entry): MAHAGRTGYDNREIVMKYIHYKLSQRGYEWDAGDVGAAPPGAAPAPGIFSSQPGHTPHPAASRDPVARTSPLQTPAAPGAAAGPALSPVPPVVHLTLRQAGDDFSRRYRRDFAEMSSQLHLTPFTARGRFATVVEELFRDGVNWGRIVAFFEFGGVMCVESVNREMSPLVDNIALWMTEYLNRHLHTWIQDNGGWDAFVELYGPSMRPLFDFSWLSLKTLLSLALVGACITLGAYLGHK

[7] = test system: MV4-11; experiment: Antitumor activity against human MV4-11 cells xenografted in SCID mouse assessed as inhibition of tumor growth at 100 mg/kg administered for 14 days consecutively relative to control; assay type: functional; settings: MV4-11, 336 h, time 14 day, read-out: TGI
[8] = test system: BC; experiment: Growth inhibition of human BC cells; assay type: functional
[9] = test system: MV4-11; experiment: cells; settings: Homo sapiens, MV4-11, 48 h
Description: Growth inhibition of human MV4-11 cells incubated for 48 hrs by cell-titer Glo reagent based assay

[10] = test system: MOLM-13; experiment: Growth inhibition of human MOLM-13 cells incubated for 48 hrs by cell-titer Glo reagent based assay; assay type: functional
[11] = test system: HCC1187; experiment: Growth inhibition of human HCC1187
[12] = test system: HL-60; experiment: Growth inhibition of human HL-60 cells incubated for 48 hrs by cell-titer Glo reagent based assay; assay type: functional
[13] = test system: THP-1; experiment: Growth inhibition of human THP-1 cells incubated for 48 hrs by cell-titer Glo reagent based assay; assay type: functional
[14] = molecular target: T1, Induced myeloid leukemia cell differentiation protein Mcl-1; experiment: Binding affinity to Mcl-1 (unknown origin) assessed as inhibition constant by Fluorescence polarization assay
[15] = molecular target: T1, Induced myeloid leukemia cell differentiation protein Mcl-1; experiment: Binding affinity to human Mcl-1 assessed as dissociation constant by Surface Plasmon Resonance assay
[16] = test system: AMO1; experiment: Antitumor activity against human AMO1 cells xenografted in mouse model assessed as tumor growth inhibition at 25 mg/kg administered for 5 days relative to control; assay type: functional; settings: AMO1, 120 h, time 5 day, read-out: TGI
[17] = test system: MV4-11; experiment: Antiproliferative activity against human MV4-11 cells assessed as reduction in cell viability; assay type: functional, cell-based
[18] = test system: NCI-H522; experiment: Antiproliferative activity against human NCI-H522 cells assessed as reduction in cell viability incubated for 48 hrs by MTT assay; assay type: functional, cell-based; settings: NCI-H522, 48 h
[19] = test system: AMO1; experiment: Antitumor activity against human AMO1 cells xenografted in mouse model assessed as tumor growth inhibition at 6.25 mg/kg administered for 5 days relative to control; assay type: functional; settings: AMO1, 120 h, time 5 day, read-out: TGI
[20] = test system: SK-MEL-2; experiment: Antiproliferative activity against human SK-MEL-2 cells assessed as reduction in cell viability incubated for 48 hrs by MTT assay; assay type: functional, cell-based; settings: SK-MEL-2, 48 h
[21] = test system: AMO1; experiment: Antiproliferative activity against human AMO1 cells assessed as reduction in cell viability; assay type: functional, cell-based
[22] = test system: NCI-H929; experiment: Antitumor activity against human NCI-H929 cells xenografted in mouse model assessed as tumor growth inhibition at 25 mg/kg administered for 5 days relative to control; assay type: functional; settings: NCI-H929, 120 h, time 5 day, read-out: TGI
[23] = test system: SK-BR-3; experiment: Antiproliferative activity against human SK-BR-3 cells assessed as reduction in cell viability incubated for 48 hrs by MTT assay; assay type: functional, cell-based; settings: SK-BR-3, 48 h
[24] = molecular target: T2, Apoptosis regulator Bcl-2; experiment: Binding affinity to Bcl-2 (unknown origin) expressed in Escherichia coli BL21 (DE3) assessed as inhibition constant by fluorescence polarization assay
[25] = test system: MV4-11; experiment: Induction of apoptosis in human MV4-11 cells; assay type: functional, cell-based
[26] = molecular target: T3, Bcl-2-like protein 1 (Homo sapiens, UniProt Q07817); experiment: Binding affinity to Bcl-XL (unknown origin) assessed as inhibition constant by fluorescence polarization assay
T3 sequence (Q07817 whole entry): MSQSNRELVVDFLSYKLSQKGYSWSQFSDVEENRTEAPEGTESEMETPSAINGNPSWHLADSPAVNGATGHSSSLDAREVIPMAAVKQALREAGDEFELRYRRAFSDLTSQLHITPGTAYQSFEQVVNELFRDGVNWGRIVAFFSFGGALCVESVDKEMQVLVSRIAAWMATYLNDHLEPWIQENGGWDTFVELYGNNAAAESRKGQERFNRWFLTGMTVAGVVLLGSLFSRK

[27] = test system: MOLM-13; experiment: Growth inhibition of human MOLM-13 cells by cell-titer Glo reagent based assay; assay type: functional
[28] = molecular target: T1, Induced myeloid leukemia cell differentiation protein Mcl-1; experiment: Binding affinity to human Mcl-1 assessed as inhibition constant
[29] = test system: MOLM-13; experiment: Induction of apoptosis in human MOLM-13 cells; assay type: functional, cell-based
[30] = test system: EOL1; experiment: Induction of apoptosis in human EOL1 cells; assay type: functional, cell-based
[31] = test system: SUD4; experiment: Induction of apoptosis in human SU-DHL-4 cells; assay type: functional, cell-based
[32] = test system: MOLP-8; experiment: Induction of apoptosis in human MOLP8 cells; assay type: functional, cell-based
[33] = molecular target: T1, Induced myeloid leukemia cell differentiation protein Mcl-1; experiment: Binding affinity to Mcl-1 (unknown origin) assessed as inhibition constant
[34] = molecular target: T1, Induced myeloid leukemia cell differentiation protein Mcl-1; experiment: Inhibition of N-terminal GST-tagged human Mcl-1expressed in Escherichia coli by TR-FRET analysis
[35] = molecular target: T1, Induced myeloid leukemia cell differentiation protein Mcl-1; experiment: Inhibition of Mcl-1 (unknown origin)
[36] = molecular target: T2, Apoptosis regulator Bcl-2; experiment: Binding affinity to Bcl-2 (unknown origin) assessed as inhibition constant
[37] = test system: AMO1; experiment: Antitumor activity against human AMO1 cells xenografted in mouse model assessed as tumor growth inhibition at 12.5 mg/kg administered for 20 days relative to control; assay type: functional; settings: AMO1, 480 h, time 20 day, read-out: TGI
[38] = molecular target: T3, Bcl-2-like protein 1; experiment: Binding affinity to Bcl-xL (unknown origin) assessed as inhibition constant
[39] = molecular target: Bcl-2-related protein A1 (Homo sapiens, UniProt Q16548); experiment: Binding affinity to Bfl-1 (unknown origin) assessed as inhibition constant
Sequence of Bcl-2-related protein A1 (Q16548 whole entry): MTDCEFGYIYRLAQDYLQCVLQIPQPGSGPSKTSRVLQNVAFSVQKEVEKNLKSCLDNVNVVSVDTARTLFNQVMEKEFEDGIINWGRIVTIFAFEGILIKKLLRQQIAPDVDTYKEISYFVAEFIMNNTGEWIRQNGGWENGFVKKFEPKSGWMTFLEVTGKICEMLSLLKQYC

[40] = molecular target: Bcl-2-like protein 2 (Homo sapiens, UniProt Q92843); experiment: Binding affinity to Bcl-W (unknown origin) assessed as inhibition constant
Sequence of Bcl-2-like protein 2 (Q92843 whole entry): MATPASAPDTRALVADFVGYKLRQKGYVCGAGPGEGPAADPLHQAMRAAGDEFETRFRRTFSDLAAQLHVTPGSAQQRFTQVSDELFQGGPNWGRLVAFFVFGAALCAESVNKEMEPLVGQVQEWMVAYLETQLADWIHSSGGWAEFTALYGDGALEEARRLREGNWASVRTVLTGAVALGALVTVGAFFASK

[41] = test system: MV4-11; experiment: Antiproliferative activity against human MV4-11 cells assessed as reduction in cell viability incubated for 24 hrs by Celltiter-Glo reagent based assay; settings: MV4-11, 24 h
[42] = test system: MOLP-8; experiment: Antiproliferative activity against human MOLP8 cells assessed as reduction in cell viability incubated for 24 hrs by Celltiter-Glo reagent based assay; settings: MOLP-8, 24 h
[43] = test system: NCI-H23; experiment: Antiproliferative activity against human NCI-H23 cells assessed as reduction in cell viability incubated for 24 hrs by Celltiter-Glo reagent based assay; assay type: functional; settings: NCI-H23, 24 h
[44] = Oral bioavailability in CD-1 mouse at 10 mg/kg, […]; assay type: ADME, organism-based; settings: in vivo

T1 sequence (Q07820 whole entry, the tested form may be a part): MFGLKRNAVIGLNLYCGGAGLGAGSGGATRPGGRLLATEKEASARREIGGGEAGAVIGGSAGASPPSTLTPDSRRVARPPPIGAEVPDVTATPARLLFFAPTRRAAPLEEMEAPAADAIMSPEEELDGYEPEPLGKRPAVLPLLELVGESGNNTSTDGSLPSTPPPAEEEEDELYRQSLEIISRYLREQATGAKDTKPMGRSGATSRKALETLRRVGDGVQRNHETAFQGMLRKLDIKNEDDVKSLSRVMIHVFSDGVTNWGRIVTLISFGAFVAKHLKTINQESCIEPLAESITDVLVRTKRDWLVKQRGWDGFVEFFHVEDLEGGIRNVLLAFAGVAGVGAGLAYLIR

O=C(O)CSc1cc(NS(=O)(=O)c2ccc(Br)cc2)c2ccccc2c1O
IC50 [1]: 310 nM

Cc1cc(OCCC(=O)O)cc(C)c1Cl
Ki [2]: 68000 nM

Cc1c(-c2c(-c3ccc(F)o3)sc3ncnc(O[C@H](Cc4ccccc4OCc4ccnn4CC(F)(F)F)C(=O)O)c23)ccc(OCCN2CCN(C)CC2)c1Cl
EC50 [3]: < 10 nM
inhibition in vivo at 12.5 mg/kg [4]: 86%
IC50 [5]: 4 nM
Ki [6]: > 10000 nM

Cc1cc(OCCCc2c3n(c4c(-c5c(C)nn(C)c5C)c(Cl)ccc24)[C@H](C)CN(c2cn(C)c4ccc(C(=O)O)cc24)C3=O)cc(C)c1Cl
inhibition in vivo at 100 mg/kg [7]: 60%
GI50 [8]: 1300 nM
GI50 [9]: 180 nM
GI50 [10]: 210 nM
GI50 [11]: 2100 nM
GI50 [12]: 3710 nM
GI50 [13]: 490 nM

CCc1sc2ncnc(N[C@@H](C)C(=O)O)c2c1CC
Ki [14]: 1.2 nM
Kd [15]: 0.19 nM

COc1ccccc1-c1nccc(COc2ccccc2C[C@H](Oc2ncnc3sc(-c4ccc(F)cc4)c(-c4ccc(OCCN5CCN(C)CC5)c(Cl)c4C)c23)C(=O)O)n1
inhibition in vivo at 25 mg/kg [16]: 114%
EC50 [3]: 4.75 nM
EC50 [17]: 10.9 nM
IC50 [18]: < 100 nM
inhibition in vivo at 6.25 mg/kg [19]: 190%
IC50 [20]: < 100 nM
EC50 [21]: 2.06 nM
inhibition in vivo at 25 mg/kg [22]: 103%
IC50 [23]: < 100 nM

COCCOCCn1nc(C)c2c1CSCc1cc(n(C)n1)CCc1cc(c3ccccc3c1)OCCCn1c(C(=O)O)c(C)c3c-2c(Cl)ccc31
Ki [24]: 3750 nM
AC50 [25]: 14 nM
Ki [26]: 5000 nM
GI50 [27]: 10 nM
Ki [28]: 0.006 nM
AC50 [29]: 10 nM
AC50 [30]: 2.1 nM
AC50 [31]: 21 nM
AC50 [32]: 8.7 nM

CCC1CC/C=C/C(O)C2CCC2CN2CC3(CCc4cc(Cl)ccc43)COc3ccc(cc32)C(=O)NS1(=O)=O (stereo unspecified)
Ki [33]: 0.05 nM

Cc1cc(SCc2nn(C)c(C)c2-c2cccc3c(CCCOc4cccc5ccccc45)c(C(=O)O)[nH]c23)nn1C
IC50 [34]: 42 nM

O=C(NS(=O)(=O)Cc1ccccc1)c1ccc2c(c1)N(CC1CCC1)CC(c1ccc(Cl)cc1Cl)O2 (stereo unspecified)
IC50 [35]: 300 nM

Cc1c(Cl)c2c(Cl)c(C)c1-c1c(-c3ccc(F)cc3)sc3ncnc(c13)O[C@@H](C(=O)O)Cc1cc(ccc1OCc1ccnc(-c3ccc(OC[C@@H]4COCCO4)cc3)n1)OC[C@@H](CN1CCN(C)CC1)O2
Ki [36]: 599 nM
inhibition in vivo at 12.5 mg/kg [37]: 46%
EC50 [3]: 0.47 nM
Ki [38]: > 660 nM
Ki [33]: < 0.01 nM
EC50 [17]: 3.91 nM
Ki [39]: > 468 nM
Ki [40]: > 468 nM
EC50 [21]: 0.16 nM

Cc1c2c(nn1C)CSCc1cc(n(C)n1)CCc1cc(c3ccccc3c1)OCCCc1c(C(=O)O)[nH]c3c-2cccc13
IC50 [34]: 19 nM

Cc1c2c(nn1C)CSCc1cc(n(C)n1)CSc1cc(c3ccccc3c1)OCCCc1c(C(=O)O)n(C)c3c-2c(Cl)ccc13 [AZD-5991]
EC50 [3]: 31.7 nM
EC50 [41]: 24 nM
EC50 [17]: 34.9 nM
EC50 [21]: 22.9 nM
EC50 [42]: 33 nM
EC50 [43]: 190 nM

CO[C@]1(CN2CCN3CCCC[C@@H]3C2)/C=C/C[C@H](C)[C@@H](C)S(=O)(=O)NC(=O)c2ccc3c(c2)N(C[C@@H]2CC[C@H]21)C[C@@]1(CCCc2cc(Cl)ccc21)CO3 [MURIZATOCLAX]
EC50 [3]: 13 nM
EC50 [17]: 43.6 nM
EC50 [21]: 13.5 nM

CC1(C)CCC(c2ccc(Cl)cc2)=C(CN2CCN(c3ccc(C(=O)NS(=O)(=O)c4ccc(N[C@H](CCN5CCOCC5)CSc5ccccc5)c(S(=O)(=O)C(F)(F)F)c4)cc3)CC2)C1 [NAVITOCLAX]
bioavailability [44]: 57%
